Laboratory results from patent US9994551B2, “Pyridazine derivatives as RORc modulators” (Genentech, Inc., priority 2015, dated 2018).

What follows are compounds tested against T1, RORc ligand binding domain (Homo sapiens, UniProt P51449) (assay: In vitro RORc ligand binding assay (25-[3H]hydroxycholesterol displacement, filter binding)).
T1 construct: host or cells: E. coli
T1 sequence (P51449 269-508 limits assumed): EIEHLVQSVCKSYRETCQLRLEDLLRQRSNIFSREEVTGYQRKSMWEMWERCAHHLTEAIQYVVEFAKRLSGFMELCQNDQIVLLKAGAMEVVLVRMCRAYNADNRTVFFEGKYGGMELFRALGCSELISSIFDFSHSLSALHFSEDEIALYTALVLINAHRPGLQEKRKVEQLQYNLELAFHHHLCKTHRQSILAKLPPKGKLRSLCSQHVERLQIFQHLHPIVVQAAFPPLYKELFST

Row | SMILES | IC50 [nM]
1 | CC1(C)[C@H]2CC[C@]1([C@H]1CN(C(=O)c3ccc(Cl)nn3)CCO1)c1nnc(-c3c(F)cccc3F)cc12 [Compound 124, (6-chloropyridazin-3-yl)-[2-[5-(2,6-difluorophenyl)-11,11-dimethyl-3,4-diazatricyclo[6.2.1.02,7]undeca-2,4,6-trien-1-yl]morpholin-4-yl]methanone] | 140
2 | Cc1nc(N2CCO[C@H]([C@@]34CC[C@@H](c5cc(-c6c(F)cccc6F)nnc53)C4(C)C)C2)n(Cc2ccccc2)n1 [Compound 143, 4-(2-benzyl-5-methyl-1,2,4-triazol-3-yl)-2-[5-(2,6-difluorophenyl)-11,11-dimethyl-3,4-diazatricyclo[6.2.1.02,7]undeca-2,4,6-trien-1-yl]morpholine] | 5.6
3 | CC[C@@H](O[C@]12CC[C@H](c3cc(-c4c(F)cccc4F)nnc31)C2(C)C)C(=O)O [Compound 113, (2R)-2-[[(1S,8R)-5-(2,6-difluorophenyl)-11,11-dimethyl-3,4-diazatricyclo[6.2.1.02,7]undeca-2,4,6-trien-1-yl]oxy]butanoic acid] | 47
4 | Cc1n[nH]c(C(=O)N2CCO[C@@H]([C@@]34CC[C@@H](c5cc(-c6c(F)cccc6F)nnc53)C4(C)C)C2)n1 [Compound 117, [2-[5-(2,6-difluorophenyl)-11,11-dimethyl-3,4-diazatricyclo[6.2.1.02,7]undeca-2,4,6-trien-1-yl]morpholin-4-yl]-(3-methyl-1H-1,2,4-triazol-5-yl)methanone] | 13
5 | CC1(C)[C@H]2CC[C@]1(c1cncc3nccn13)c1nnc(-c3c(F)cccc3F)cc12 [Compound 109, (5R,8S)-3-(2,6-difluorophenyl)-8-(imidazo[1,2-a]pyrazin-5-yl)-9,9-dimethyl-5,6,7,8-tetrahydro-5,8-methanocinnoline] | 175
6 | CCOC(=O)c1coc(N2CCO[C@@H]([C@@]34CC[C@@H](c5cc(-c6c(F)cccc6F)nnc53)C4(C)C)C2)n1 [Compound 127, ethyl 2-[2-[5-(2,6-difluorophenyl)-11,11-dimethyl-3,4-diazatricyclo[6.2.1.02,7]undeca-2,4,6-trien-1-yl]morpholin-4-yl]oxazole-4-carboxylate] | 5
7 | CN1CCNC[C@H]1[C@@]12CC[C@@H](c3cc(-c4c(F)cccc4F)nnc31)C2(C)C [Compound 178, 5-(2,6-difluorophenyl)-11,11-dimethyl-1-(1-methylpiperazin-2-yl)-3,4-diazatricyclo[6.2.1.02,7]undeca-2,4,6-triene] | 13
8 | CC1(C)[C@H]2CC[C@]1([C@H]1CCCN(C(=O)c3ccc(=O)[nH]n3)C1)c1nnc(-c3c(F)cccc3F)cc12 [Compound 125, 3-[3-[5-(2,6-difluorophenyl)-11,11-dimethyl-3,4-diazatricyclo[6.2.1.02,7]undeca-2,4,6-trien-1-yl]piperidine-1-carbonyl]-1H-pyridazin-6-one] | 74
9 | CC(=O)N1CCO[C@@H]([C@@]23CC[C@@H](c4cc(-c5c(F)cccc5F)nnc42)C3(C)C)C1 [Compound 72, 1-((S)-2-((5R,8R)-3-(2,6-difluorophenyl)-9,9-dimethyl-5,6,7,8-tetrahydro-5,8-methanocinnolin-8-yl)morpholino)ethanone] | 119
10 | CC[C@@H](C[C@@]12CC[C@@H](c3cc(-c4c(F)cccc4F)nnc31)C2(C)C)C(N)=O [Compound 5, (S)-2-(((5R,8R)-3-(2,6-difluorophenyl)-9,9-dimethyl-5,6,7,8-tetrahydro-5,8-methanocinnolin-8-yl)methyl)butanamide] | 67.4
11 | CC1(C)[C@H]2CC[C@]1(Oc1cc[nH]c(=O)c1)c1nnc(-c3c(F)cccc3F)cc12 [Compound 34, 4-(((5S,8R)-3-(2,6-difluorophenyl)-9,9-dimethyl-5,6,7,8-tetrahydro-5,8-methanocinnolin-8-yl)oxy)pyridin-2(1H)-one] | 202
12 | Cc1n[nH]c(N2CCO[C@H]([C@@]34CC[C@@H](c5cc(-c6c(F)cccc6F)nnc53)C4(C)C)C2)n1 [Compound 142, 2-[5-(2,6-difluorophenyl)-11,11-dimethyl-3,4-diazatricyclo[6.2.1.02,7]undeca-2,4,6-trien-1-yl]-4-(3-methyl-1H-1,2,4-triazol-5-yl)morpholine] | 19
13 | CC1(C)C2CCC1(C1CCCN(C(=O)c3ncco3)C1)c1nnc(-c3c(F)cccc3F)cc12 (centres unmarked) [Compound 159, [3-[5-(2,6-difluorophenyl)-11,11-dimethyl-3,4-diazatricyclo[6.2.1.02,7]undeca-2,4,6-trien-1-yl]-1-piperidyl]-oxazol-2-yl-methanone] | 4.5
14 | CC1(C)[C@H]2CC[C@]1(c1ccn3ccnc3n1)c1nnc(-c3c(F)cccc3F)cc12 [Compound 106] | 102
15 | CC[C@@H](O[C@@]12CC[C@@H](c3cc(-c4c(F)cccc4F)nnc31)C2(C)C)c1n[nH]c(CO)n1 [Compound 39, (3-((R)-1-(((5S,8R)-3-(2,6-difluorophenyl)-9,9-dimethyl-5,6,7,8-tetrahydro-5,8-methanocinnolin-8-yl)oxy)propyl)-1H-1,2,4-triazol-5-yl)methanol] | 827
16 | CCNC(=O)[C@H](CC)O[C@@]12CC[C@@H](c3cc(-c4c(F)cccc4F)nnc31)C2(C)C [Compound 19, (S)-2-(((5S,8R)-3-(2,6-difluorophenyl)-9,9-dimethyl-5,6,7,8-tetrahydro-5,8-methanocinnolin-8-yl)oxy)-N-ethylbutanamide] | 34.7
17 | CC1(C)[C@H]2CC[C@]1([C@@H]1CNCCO1)c1nnc(-c3c(F)cccc3F)cc12 [Compound 66, (R)-2-((5R,8R)-3-(2,6-difluorophenyl)-9,9-dimethyl-5,6,7,8-tetrahydro-5,8-methanocinnolin-8-yl)morpholine] | 458
18 | CC[C@@H](O[C@@]12CC[C@@H](c3cc(-c4c(F)cccc4F)nnc31)C2(C)C)C(=O)NCCCO [Compound 105, (R)-2-(((5S,8R)-3-(2,6-difluorophenyl)-9,9-dimethyl-5,6,7,8-tetrahydro-5,8-methanocinnolin-8-yl)oxy)-N-(3-hydroxypropyl)butanamide] | 33.9
19 | CC1(C)[C@H]2CC[C@]1([C@H]1CN(C(=O)c3ccc(=O)[nH]n3)CCO1)c1nnc(-c3c(F)cccc3F)cc12 (stereo in doubt) [Compound 123, 3-[2-[5-(2,6-difluorophenyl)-11,11-dimethyl-3,4-diazatricyclo[6.2.1.02,7]undeca-2,4,6-trien-1-yl]morpholine-4-carbonyl]-1H-pyridazin-6-one] | 720
20 | Cc1cc(O[C@@]23CC[C@@H](c4cc(-c5c(F)cccc5F)nnc42)C3(C)C)ccn1 [Compound 25, (5S,8R)-3-(2,6-difluorophenyl)-9,9-dimethyl-8-((2-methylpyridin-4-yl)oxy)-5,6,7,8-tetrahydro-5,8-methanocinnoline] | 844
21 | Cc1nnc(CO[C@@]23CC[C@@H](c4cc(-c5c(F)cccc5F)nnc42)C3(C)C)o1 [Compound 8, 2-((((5S,8R)-3-(2,6-difluorophenyl)-9,9-dimethyl-5,6,7,8-tetrahydro-5,8-methanocinnolin-8-yl)oxy)methyl)-5-methyl-1,3,4-oxadiazole] | 140
22 | CC(C)(C)OC(=O)N1CCN[C@H]([C@@]23CC[C@@H](c4cc(-c5c(F)cccc5F)nnc42)C3(C)C)C1 (single isomer, unassigned) [Compound 114, tert-butyl 3-[5-(2,6-difluorophenyl)-11,11-dimethyl-3,4-diazatricyclo[6.2.1.02,7]undeca-2,4,6-trien-1-yl]piperazine-1-carboxylate] | 420
23 | CC1(C)[C@H]2CC[C@]1(Oc1cccnc1)c1nnc(-c3c(F)cccc3F)cc12 [Compound 27, (5S,8R)-3-(2,6-difluorophenyl)-9,9-dimethyl-8-(pyridin-3-yloxy)-5,6,7,8-tetrahydro-5,8-methanocinnoline] | 67
24 | CC[C@@H](O[C@@]12CC[C@@H](c3cc(-c4c(F)cccc4F)nnc31)C2(C)C)C(=O)NCC(=O)N(C)C [Compound 104, (R)-2-(((5S,8R)-3-(2,6-difluorophenyl)-9,9-dimethyl-5,6,7,8-tetrahydro-5,8-methanocinnolin-8-yl)oxy)-N-(2-(dimethylamino)-2-oxoethyl)butanamide] | 82.9
25 | CC[C@@H](O[C@@]12CC[C@@H](c3cc(-c4c(F)cccc4F)nnc31)C2(C)C)C(=O)Nc1nnc(C)o1 [Compound 55, (R)-2-(((5S,8R)-3-(2,6-difluorophenyl)-9,9-dimethyl-5,6,7,8-tetrahydro-5,8-methanocinnolin-8-yl)oxy)-N-(5-methyl-1,3,4-oxadiazol-2-yl)butanamide] | 94.8
26 | CC[C@@H](O[C@@]12CC[C@@H](c3cc(-c4c(F)cccc4F)nnc31)C2(C)C)C(=O)N(C)C [Compound 36, (R)-2-(((5S,8R)-3-(2,6-difluorophenyl)-9,9-dimethyl-5,6,7,8-tetrahydro-5,8-methanocinnolin-8-yl)oxy)-N,N-dimethylbutanamide] | 54.3
27 | CN(C)C(=O)N1CCO[C@H]([C@@]23CC[C@@H](c4cc(-c5c(F)cccc5F)nnc42)C3(C)C)C1 [Compound 86, (R)-2-((5R,8R)-3-(2,6-difluorophenyl)-9,9-dimethyl-5,6,7,8-tetrahydro-5,8-methanocinnolin-8-yl)-N,N-dimethylmorpholine-4-carboxamide] | 473
28 | CC1(C)[C@H]2CC[C@]1(Oc1ccccc1)c1nnc(-c3c(F)cccc3F)cc12 [Compound 24, (5S,8R)-3-(2,6-difluorophenyl)-9,9-dimethyl-8-phenoxy-5,6,7,8-tetrahydro-5,8-methanocinnoline] | 14.4
29 | CC1(C)[C@H]2CC[C@]1([C@H]1CN(C(=O)c3cnco3)CCO1)c1nnc(-c3c(F)cccc3F)cc12 [Compound 94, ((S)-2-((5R,8R)-3-(2,6-difluorophenyl)-9,9-dimethyl-5,6,7,8-tetrahydro-5,8-methanocinnolin-8-yl)morpholino)(oxazol-5-yl)methanone] | 76.3
